Holding throughout (format): cell-based
Assay [1] deals with MCF7 human breast cancer cell line. In words: IGF1 immunofluorescence staining, MCF7 cells with or without Wnt signaling inhibitor. The protocol:
(§1) In order to confirm the expression level of IGF1 gene, one of the five genes discovered above, within a cell, the 4T1 murine breast cancer cell line and MCF7 human breast cancer cell line were cultured via adhesion culture method and suspending culture method in the same manner as in Example 1 under the condition of with or without the treatment of the Wnt signaling inhibitor (CWP232228, JW Pharmaceutical, Korea) and thereby obtained the respective culture products.
(§2) The thus obtained respective culture products were added with mouse anti-IGF1 antibodies (Milipore, cat. #05-172) to perform a primary reaction, and then added with anti-mouse IgG antibodies (Invitrogen cat.A11001) to perform a secondary reaction, thereby performing an immunofluorescence staining regarding the IGF1 gene, which was observed under an optical microscope (Zeiss LSM 510) and the expression level of IGF1 was measured (FIG. 3).

The subject of assay [2] is 4T1 murine breast cancer cell line. In words: IGF1 immunofluorescence staining, 4T1 cells with or without Wnt signaling inhibitor. Here is the method:
as §1, §2

Assay [3] deals with 4T1 murine breast cancer cell line (suspending culture, cancer stem cells). As to the kind of experiment: RTQ-PCR of stem cell marker genes in suspension-cultured 4T1 cells with or without Wnt signaling inhibitor. The settings on record: 1 μM applied 4 times, once in two days, 8 days suspending culture. Here is the method: Then, the 4T1 murine breast cancer cell line was added with a DMEM medium containing 20 ng/mL of EGF, 20 ng/mL of bFGF, 4 μg/mL of heparin, and B27, and cultured via suspending culture at 37° C. with […] for 7 days to obtain a culture product in a spherical form.
First, 4T1 murine breast cancer cell line was cultured via the suspending culturing method in the same manner as in Example 1-1 for 8 days under the condition of with or without the treatment of the Wnt signaling inhibitor (CWP232228, JW Pharmaceutical, Korea). In particular, the Wnt signaling inhibitor was applied a total of 4 times once in two days at a concentration of 1 μM.
Then, the thus obtained culture products were subjected to RNeasy Plus Mini Kit (Qiagen Inc, Valencia, Calif.) and the total RNA was extracted from each of the culture products. The thus-extracted each of the total RNA was subjected to random hexamer and ReverAid H Minus First Strand cDNA Synthesis Kit (Thermo scientific) to synthesize their respective cDNAs. […] The data obtained via RTQ-PCR was analyzed and, based on the 2-deltadelta ct values among the respective cells cultured, the genes with at least a 2-fold difference and a P value<0.05 were selected. […]

Setting [4] is: adhesion culture, regardless of treatment.
The mark [5] stands for this setting: suspending culture (cancer stem cells).

A value given as a limit tells only on which side of the number the result lay.

As to `C=CCN1CC(=O)N2[C@@H](Cc3ccc(OP(=O)([O-])[O-])cc3)C(=O)N(Cc3cccc4cn(C)nc34)C[C@@H]2N1C(=O)NCc1ccccc1.[Na+].[Na+]` [CWP232228], the “IGF1 gene expression (immunofluorescence, FIG. 3)” value in assay [1] (setting [4]) and in assay [2] (setting [4]) was “not expressed” each time. Besides, the “level of IGF1 gene expression (immunofluorescence, FIG. 3)” value in assay [1] (setting [5]) and in assay [2] (setting [5]) was “deceased” throughout. Besides, in assay [3] (P value<0.05), the “difference in expression of IGF1, Id2, MMP2, MMP9 and Wnt5a genes (2-deltadelta ct, Stem cell PCR array) treated vs untreated” value is listed as no less than 2 fold. The “expression of IGF1, Id2, MMP2, MMP9 and Wnt5a genes by RTQ-PCR with specific primers (FIG. 2)” value in assay [3] (treated vs untreated) is reported as “significant difference in their expression”.
